The source of these data is PubChem BioAssay AID1918943 (Molecular Pharmacology Branch, DTP, NCI, 2023).

The structures appear in SMILES notation. Where “and” joins values, the source holds several entries; their conditions need not be identical. Equal entries are not always repeated.

This assay concerns 855422-203-R-J1-PDC complex spheroid viability. Briefly: Anticancer human tumor 855422-203-R-J1-PDC patient-derived bladder carcinoma cell line growth inhibition. The settings on record: for viability, T/C: stronger effect = lower value; for IC50: curve of compound. An excerpt:
Multicellular complex tumor spheroid response to LSD1 Inhibitor Iadademstat in combination with a variety of drugs and investigational agents in selected tumor cell lines
The current study was undertaken to assess response to LSD1 inhibitors in combination with standard-of-care drugs and investigational agents in solid tumor complex spheroid models as well as in the K-562 leukemia. Complex spheroids include a stromal component modeled by human endothelial cells (HUVEC) and fibroblasts modeled by human mesenchymal stem cells (MSCs). The concentration ranges selected for each drug and investigational agent were based upon clinically achievable concentrations if the clinical Cmax of the agent was known.
Compounds. The drugs and investigational agents used in this study are listed on Table 1. All of the agents used, including staurosporine (NSC755774) and gemcitabine (NSC613327), were obtained from the Developmental Therapeutics Program, NCI. FDA-approved anticancer drugs are available from the NCI at http://dtp.nci.nih.gov/branches/dscb/oncology_drugset_explanation.html. Drugs and investigational agents were >95% pure by proton nuclear magnetic resonance (NMR) and liquid chromatography/mass spectrometry (LC/MS). Stock solutions were prepared at 400x in DMSO, stored at -70 degrees C, and diluted in fresh medium prior to their use. The final concentration of DMSO in cell culture wells never exceeded 0.25% (v/v). The FDA-approved anticancer drug set is available from the Developmental Therapeutics Program at https://dtp.cancer.gov/organization/dscb/obtaining/available_plates.htm. All drugs and investigational agents were tested over a range starting from a high concentration at or near the clinical Cmax and decreasing in half-log increments. If the clinical Cmax for an agent had not been determined, the highest concentration tested was 10 microM.
Cell Lines. The patient-derived cancer cell (PDC) lines: 292921-168-R-J2-PDC, K24384-001-R-PDC, and 521955-158-R2-J5-PDC pancreatic carcinomas, 556581-035-R-J1 ovarian carcinoma, 324938-238-R-J1-PDC, 855422-203-R-J1-PDC and 883617-216-R-J1-PDC urothelial bladder carcinomas, 743489-274-T-PDC renal cell carcinoma, 138582-R-J1 Merkel cell tumor, K60290-347-R-J1 and K57222-313-R-J1-PDC glioblastomas, 653999-131-R-J2-PDC, LG0703-F948-PDC, and 349418-098-R-PDC non-small cell lung carcinomas, 885512-296-R-J2-PDC, 171881-019-R-J1-PDC breast carcinomas and 186277-243-T-J2-PDC and 233499-124-R-J2-PDC colon carcinomas were obtained from the NCI Patient-Derived Models Repository (PDMR, https://pdmr.cancer.gov). The established cell lines NCI/ADR-RES (RRID:CVCL_14520 and OVCAR-5 (RRID:CVCL_1628) ovarian carcinomas, 786-O (RRID:CVCL_1051) and A498 (RRID:CVCL_A498) renal cell carcinoma, NCI-H211 (ATCC, cat. CRL-5824; RRID:CVCL_1529), NCI-H196 (ATCC, cat. CRL-5823, RRID:CVCL_1509), SW 1271 (ATCC, cat. CRL-2177, RRID:CVCL_1716) and NCI-H1876 (ATCC, cat. CRL-5902, RRID:CVCL_1503) small cell lung carcinomas, MDA-MB-231 (RRID:CVCL_0062) and MDA-MB-468 (RRID:CVCL_0419)breast carcinomas (10-12). Pooled donor human umbilical vein endothelial cells (HUVEC, Lonza, cat. CC-2519) and human mesenchymal stem cells (hMSC, Lonza, cat. PT-2501) were purchased from Lonza (Walkersville, MD).
Cell Culture. All cells were maintained in an incubator at 37 degrees C and 5% CO2 with 95% humidity. The PDC lines were cultured according to standard operating procedures established by the NCI PDMR (https://pdmr.cancer.gov). Briefly all PDCs were thawed and cultured in Matrigel-coated flasks prepared with a working solution of 1X Ham's F-12 nutrient mix, without supplementation (Invitrogen, Waltham, MA, cat. 11765054), 100 U/mL penicillin-streptomycin (Invitrogen, cat. 15140122), and 2.5% Matrigel (Corning Inc., Corning, NY, cat. 354248) for the first three passages. […]
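Also: drug exposure lasted 7 days starting on day 3 after seeding.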
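For viability, T/C in this document: luminescence viability as percent of DMSO vehicle wells = 100%.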

Turning to `Cn1ncnc1C1c2n[nH]c(=O)c3cc(F)cc(c23)NC1c1ccc(F)cc1` (stereo not drawn), the IC50 is above 100 nM. The viability, T/C (compound 0.000316 µM) is 114% and 96.5%. For the same molecule, under “compound 0.001 µM”, the viability, T/C was 89% and 83.3%. For the same molecule, where the note is “compound 0.00316 µM”, the viability, T/C is 95.8% and 84.2%. Where the note is “compound 0.01 µM”, the viability, T/C is 95.8% and 73.8%. For the same molecule, the viability, T/C (compound 0.0316 µM) is 89.2% and 86.2%. Besides, the viability, T/C (compound 0.1 µM) was 81.8% and 86.8%.
Regarding `NS(=O)(=O)OCC1CC(n2ccc3c(NC4CCc5ccccc54)ncnc32)CC1O` (stereo not drawn), the IC50 was 436 nM and 668 nM. In addition, where the note is “compound 0.00949 µM”, the viability, T/C is 97.8% and 103%. In addition, for the setting “compound 0.03 µM”, the viability, T/C is 81% and 96.5%. For the same molecule, the viability, T/C (compound 0.0949 µM) was 81.1% and 100%. For the setting “compound 0.3 µM”, the viability, T/C was 63.5% and 87.5%. Also, the viability, T/C (compound 0.949 µM) is 25.4% and 33.6%. Also, under “compound 3 µM”, the viability, T/C was 9.22% and 9.95%.
`Nc1ccccc1NC(=O)c1ccc(CNC(=O)OCc2cccnc2)cc1`: the half-maximal inhibitory concentration (IC50) was 1510 nM and 1300 nM. Further, under “compound 0.00949 µM”, the viability, T/C was 92.6% and 94.4%. For the setting “compound 0.03 µM”, the viability, T/C was 100% and 97%. In addition, the viability, T/C (compound 0.0949 µM) is 106% and 105%. Further, the viability, T/C (compound 0.3 µM) was 90.8% and 101%. For the same molecule, the viability, T/C (compound 0.949 µM) was 75.4% and 64%. The viability, T/C (compound 3 µM) is 13.4% and 13.2%.
`Nc1ccn(C2OC(CO)C(O)C2(F)F)c(=O)n1` (stereo not drawn): the 50% inhibitory concentration (IC50) was 5.5 nM and 4.42 nM. Moreover, where the note is “compound 0.000949 µM”, the viability, T/C was 90.2% and 96.5%. Besides, where the note is “compound 0.003 µM”, the viability, T/C was 59.8% and 55%. Also, the viability, T/C (compound 0.00949 µM) was 37.2% and 35.9%. Besides, the viability, T/C (compound 0.03 µM) is 36.1% and 29.9%. The viability, T/C (compound 0.0949 µM) was 29.3% and 22%. Besides, the viability, T/C (compound 0.3 µM) is 19.9% and 16.3%.
Turning to `Nc1ncn(C2CC(O)C(CO)O2)c(=O)n1` (stereo not drawn), the concentration for half-maximal inhibition (IC50) was above 1000 nM. Besides, the viability, T/C (compound 0.00316 µM) was 101% and 96.5%. Moreover, the viability, T/C (compound 0.01 µM) was 92.3% and 88.8%. Besides, the viability, T/C (compound 0.0316 µM) was 81.1% and 89%. Moreover, the viability, T/C (compound 0.1 µM) was 86.6% and 94%. For the same molecule, under “compound 0.316 µM”, the viability, T/C is 80.8% and 94.5%. Moreover, the viability, T/C (compound 1 µM) is 78% and 87%.
`Nc1ncn(C2CC(O)C(CO)S2)c(=O)n1` (stereo not drawn): the IC50 was above 300 nM. In addition, under “compound 0.000949 µM”, the viability, T/C was 106% and 93.8%. Further, the viability, T/C (compound 0.003 µM) was 91.9% and 98.4%. Further, where the note is “compound 0.00949 µM”, the viability, T/C is 88.5% and 95.2%. Further, the viability, T/C (compound 0.03 µM) is 84.7% and 98%. In addition, the viability, T/C (compound 0.0949 µM) is 82.8% and 102%. Also, for the setting “compound 0.3 µM”, the viability, T/C was 79.9% and 83.6%.
For `O=C(C=Cc1cccc(S(=O)(=O)Nc2ccccc2)c1)NO`, the IC50 was 399 nM and 444 nM. In addition, where the note is “compound 0.00949 µM”, the viability, T/C is 90.4% and 96.6%. The viability, T/C (compound 0.03 µM) was 104% and 108%. Besides, for the setting “compound 0.0949 µM”, the viability, T/C was 82% and 112%. Besides, the viability, T/C (compound 0.3 µM) was 64.3% and 65.9%. Further, the viability, T/C (compound 0.949 µM) was 12.3% and 17.6%. Moreover, where the note is “compound 3 µM”, the viability, T/C was 0.4% and 0.43%.
For `O=C(C=Cn1cnc(-c2cc(C(F)(F)F)cc(C(F)(F)F)c2)n1)NNc1cnccn1`, the concentration for half-maximal inhibition (IC50) was 37.5 nM and 29.4 nM. Moreover, under “compound 0.00316 µM”, the viability, T/C is 124% and 114%. Also, under “compound 0.01 µM”, the viability, T/C is 125% and 86.4%. In addition, the viability, T/C (compound 0.0316 µM) is 52.5% and 44.8%. Where the note is “compound 0.1 µM”, the viability, T/C is 43.6% and 32.7%. Also, for the setting “compound 0.316 µM”, the viability, T/C was 38.7% and 27.1%. The viability, T/C (compound 1 µM) is 25% and 18.6%.
Regarding `O=C(c1cc(Cc2n[nH]c(=O)c3ccccc23)ccc1F)N1CCN(C(=O)C2CC2)CC1`, the half-inhibitory concentration (IC50) was above 10000 nM. Besides, the viability, T/C (compound 0.0316 µM) is 88.5% and 98.6%. Moreover, where the note is “compound 0.1 µM”, the viability, T/C is 94.1% and 111%. Besides, the viability, T/C (compound 0.316 µM) is 96% and 110%. Further, for the setting “compound 1 µM”, the viability, T/C was 88.8% and 98.8%. In addition, the viability, T/C (compound 3.16 µM) is 86.5% and 91.7%. Besides, the viability, T/C (compound 10 µM) was 63.3% and 76.1%.

In general, viability, T/C refers to the result in the treated group divided by that in the control group, in per cent. In general, IC50 refers to the concentration that gives 50% inhibition.
